The structures appear in SMILES notation.

Common to all, as to type: functional
The nature of experiment [1]: Cytotoxicity against human OVCAR8 cells assessed as cell growth at 0.5 uM after 48 hrs by SRB assay. The conditions noted are these: OVCAR-8, 48 h, read-out: Activity.
The test system of a further experiment is KM12. Description: Cytotoxicity against human KM12 cells assessed as cell growth at 5 nM after 48 hrs by SRB assay. The note with it: KM12, 48 h, read-out: Activity.
Experiment [2] is described as follows: Cytotoxicity against human OVCAR4 cells assessed as cell growth at 5 uM after 48 hrs by SRB assay. The conditions noted are these: OVCAR-4, 48 h, read-out: Activity. (In SRB staining, fixed cells bind dye roughly in proportion to their protein.)
A short description of experiment [3]: Cytotoxicity against human HCT15 cells assessed as cell growth at 50 nM after 48 hrs by SRB assay. The note with it: HCT-15, 48 h, read-out: Activity.
Experiment [4] concerns A549. Description: Cytotoxicity against human A549 cells assessed as cell growth at 5 nM after 48 hrs by SRB assay. The note with it: A549, 48 h, read-out: Activity.
The test system of the next experiment is SK-MEL-2. Description: Cytotoxicity against human SK-MEL-2 cells assessed as cell growth at 50 uM after 48 hrs by SRB assay. The conditions noted are these: SK-MEL-2, 48 h, read-out: Activity.
Experiment [5] concerns M14. Briefly: Cytotoxicity against human M14 cells assessed as cell growth at 50 uM after 48 hrs by SRB assay. The conditions noted are these: M14, 48 h, read-out: Activity.
The nature of experiment [6]: Cytotoxicity against human HCT116 cells assessed as cell growth at 5 uM after 48 hrs by SRB assay. The conditions noted are these: HCT-116, 48 h, read-out: Activity.
The subject of experiment [7] is A549. Briefly: Cytotoxicity against human A549 cells assessed as cell growth at 0.5 uM after 48 hrs by SRB assay. The conditions noted are these: A549, 48 h, read-out: Activity.
The subject of a further experiment is ACHN. Description: Cytotoxicity against human ACHN cells assessed as cell growth at 5 uM after 48 hrs by SRB assay. The conditions noted are these: read-out: Activity.
A further experiment has as its system SN12C. Description: Cytotoxicity against human SN12C cells assessed as cell growth at 50 uM after 48 hrs by SRB assay. The note with it: read-out: Activity.
Experiment [8] is described as follows: Cytotoxicity against human BT549 cells assessed as cell growth at 5 nM after 48 hrs by SRB assay. The conditions noted are these: BT-549, 48 h, read-out: Activity.
A short description of experiment [9]: Cytotoxicity against human IGROV1 cells assessed as cell growth at 50 nM after 48 hrs by SRB assay. The note with it: IGROV-1, 48 h, read-out: Activity.
A short description of experiment [10]: Cytotoxicity against human HOP92 cells assessed as cell growth at 0.5 uM after 48 hrs by SRB assay. The note with it: HOP-92, 48 h, read-out: Activity.
Experiment [11] has as its system SK-MEL-28. Description: Cytotoxicity against human SK-MEL-28 cells assessed as cell growth at 5 uM after 48 hrs by SRB assay. The conditions noted are these: SK-MEL-28, 48 h, read-out: Activity.
The test system of a further experiment is CCRF-CEM. Briefly: Cytotoxicity against human CCRF-CEM cells assessed as cell growth at 50 nM after 48 hrs by SRB assay. The conditions noted are these: read-out: Activity.
A short description of experiment [12]: Cytotoxicity against human NCI-ADR-RES cells assessed as cell growth at 50 nM after 48 hrs by SRB assay. The conditions noted are these: read-out: Activity.
The test system of experiment [13] is A498. Description: Cytotoxicity against human A498 cells assessed as cell growth at 5 nM after 48 hrs by SRB assay. The conditions noted are these: A498, 48 h, read-out: Activity.
Experiment [14] concerns SK-MEL-28. Briefly: Cytotoxicity against human SK-MEL-28 cells assessed as cell growth at 0.5 uM after 48 hrs by SRB assay. The note with it: SK-MEL-28, 48 h, read-out: Activity.
Experiment [15] is described as follows: Cytotoxicity against human UO31 cells assessed as cell growth at 0.5 uM after 48 hrs by SRB assay. The note with it: UO-31, 48 h, read-out: Activity.
The subject of experiment [16] is MDA-MB-435. Briefly: Cytotoxicity against human MDA-MB-435 cells assessed as cell growth at 0.5 uM after 48 hrs by SRB assay. The note with it: MDA-MB-435, 48 h, read-out: Activity.
The nature of experiment [17]: Cytotoxicity against human DU145 cells assessed as cell growth at 0.5 uM after 48 hrs by SRB assay. The conditions noted are these: DU-145, 48 h, read-out: Activity.
A short description of experiment [18]: Cytotoxicity against human DU145 cells assessed as cell growth at 50 nM after 48 hrs by SRB assay. The note with it: DU-145, 48 h, read-out: Activity.
In another experiment the test system is NCI-H23. Description: Cytotoxicity against human NCI-H23 cells assessed as cell growth at 5 uM after 48 hrs by SRB assay. The conditions noted are these: NCI-H23, 48 h, read-out: Activity.
Experiment [19] in a line: Cytotoxicity against human LOXIMVI cells assessed as cell growth at 50 nM after 48 hrs by SRB assay. The note with it: LOX IMVI, read-out: Activity.
Experiment [20] has as its system MDA-MB-435. Description: Cytotoxicity against human MDA-MB-435 cells assessed as cell growth at 10^-7 M after 48 hrs by SRB assay. The conditions noted are these: MDA-MB-435, 48 h, read-out: Activity.
Experiment [21] in a line: Cytotoxicity against human Hs 578T cells assessed as cell growth at 10^-8 M after 48 hrs by SRB assay. The conditions noted are these: read-out: Activity.
Experiment [22] can be described thus: Cytotoxicity against human RPMI8226 cells assessed as cell growth at 10^-7 M after 48 hrs by SRB assay. The note with it: RPMI-8226, 48 h, read-out: Activity.
The next experiment has as its system SK-MEL-5. Briefly: Cytotoxicity against human SK-MEL-5 cells assessed as cell growth at 10^-4 M after 48 hrs by SRB assay. The conditions noted are these: SK-MEL-5, 48 h, read-out: Activity.
Experiment [23] relates to MDA-MB-435. Briefly: Cytotoxicity against human MDA-MB-435 cells assessed as cell growth at 10^-5 M after 48 hrs by SRB assay. The note with it: MDA-MB-435, 48 h, read-out: Activity.
For experiment [24], the system named is A549. Briefly: Cytotoxicity against human A549 cells assessed as cell growth at 10^-6 M after 48 hrs by SRB assay. The conditions noted are these: A549, 48 h, read-out: Activity.
A short description of experiment [25]: Cytotoxicity against human SF268 cells assessed as cell growth at 10^-4 M after 48 hrs by SRB assay. The note with it: SF-268, 48 h, read-out: Activity.
In experiment [26] the test system is A498. Briefly: Cytotoxicity against human A498 cells assessed as cell growth at 10^-6 M after 48 hrs by SRB assay. The conditions noted are these: A498, 48 h, read-out: Activity.
The subject of the next experiment is NCI-H522. Description: Cytotoxicity against human NCI-H522 cells assessed as cell growth at 10^-7 M after 48 hrs by SRB assay. The note with it: NCI-H522, 48 h, read-out: Activity.
Experiment [27] can be described thus: Cytotoxicity against human UO31 cells assessed as cell growth at 10^-7 M after 48 hrs by SRB assay. The conditions noted are these: UO-31, 48 h, read-out: Activity.
A short description of experiment [28]: Cytotoxicity against human OVCAR4 cells assessed as cell growth at 10^-6 M after 48 hrs by SRB assay. The note with it: OVCAR-4, 48 h, read-out: Activity.
Experiment [29] is described as follows: Cytotoxicity against human SF268 cells assessed as cell growth at 10^-5 M after 48 hrs by SRB assay. The conditions noted are these: SF-268, 48 h, read-out: Activity.
For another experiment, the system named is 786-0. Briefly: Cytotoxicity against human 786-0 cells assessed as cell growth at 10^-5 M after 48 hrs by SRB assay. The conditions noted are these: 786-0, 48 h, read-out: Activity.
Experiment [30] in a line: Cytotoxicity against human OVCAR4 cells assessed as cell growth at 10^-5 M after 48 hrs by SRB assay. The conditions noted are these: OVCAR-4, 48 h, read-out: Activity.
The subject of a further experiment is MDA-MB-468. Briefly: Cytotoxicity against human MDA-MB-468 cells assessed as cell growth at 10^-8 M after 48 hrs by SRB assay. The note with it: MDA-MB-468, 48 h, read-out: Activity.
Experiment [31] relates to M14. Description: Cytotoxicity against human M14 cells assessed as cell growth at 10^-7 M after 48 hrs by SRB assay. The note with it: M14, 48 h, read-out: Activity.
Experiment [32] can be described thus: Cytotoxicity against human PC3 cells assessed as cell growth at 10^-6 M after 48 hrs by SRB assay. The conditions noted are these: PC-3, 48 h, read-out: Activity.

Consider `CCCCCCCCCC(=O)Oc1ccc(/C(=C(/C)c2ccccc2)c2ccc(OCCN3CCCC3)cc2)cc1`, for which the growth at 0.5 µM in experiment [1] is 91%; in the experiment with A549 [7] it was 96%; in experiment [10], 64%; in the experiment on SK-MEL-28 [14] it was 19%; in experiment [15], 61%; in the experiment with MDA-MB-435 [16], 67%. Moreover, in experiment [17], the growth at 0.5 µM came to 81%. Also, the growth at 0.005 µM is 101% with KM12, 101% in the experiment with A549 [4], 100% in [8] and 61% with A498 [13]. In addition, the growth at 5 µM was determined as 78% in experiment [2]; 85% in [6]; 88% with ACHN; 89% in the experiment with SK-MEL-28 [11]; 80% in the experiment on NCI-H23. Besides, the growth at 0.05 µM in experiment [3] is 90%; in experiment [9], 95%; with CCRF-CEM, 100%; in [12] it was 96%; in experiment [18], 98%; in experiment [19], 97%. In addition, the growth at 50 µM is -79% in the experiment with SK-MEL-2, -81% in the experiment on M14 [5] and -76% in the experiment with SN12C.

For `C/C(=C(/c1ccc(O)cc1)c1ccc(OCCN2CCCC2)cc1)c1ccccc1`, the growth at 0.1 µM was 97% in the experiment with MDA-MB-435 [20]; 103% in experiment [22]; 94% in the experiment on NCI-H522; 90% in [27]; 93% with M14 [31]. Moreover, the growth at 0.01 µM in experiment [21] is 100%; in the experiment on MDA-MB-468, 99%. Also, the growth at 100 µM with SK-MEL-5 is -100%; in experiment [25], -80%. The growth at 10 µM in the experiment with MDA-MB-435 [23] was -48%; in experiment [29], 37%; in the experiment on 786-0, -57%; in [30] it was 31%. The growth at 1 µM with A549 [24] was found to be 106%; in the experiment with A498 [26] it was 66%; in experiment [28] it was 89%; in [32], 103%.

The values are drawn from ChEMBL document CHEMBL3774317, “Design and synthesis of novel tamoxifen analogues that avoid CYP2D6 metabolism” (Eur J Med Chem, 2016).
